Measured values as given in patent US9204640B2, “2-acyloxy-pyrrolin-4-ones” (BAYER INTELLECTUAL PROPERTY GMBH, priority 2011, dated 2015).

Assays:
Format in all cases: in vivo
Avena fatua [1] = experiment: Herbicidal pre-emergence action, AVEFA
Description: (§1) 1. Herbicidal Pre-Emergence Action
(§2) • Seeds of monocotyledonous and dicotyledonous weed plants and crop plants are placed in wood-fiber pots in sandy loam and covered with soil. The test compounds, formulated in the form of wettable powders (WP), are then, as an aqueous suspension with a water application rate of 600 l/ha (converted), with 0.2% of wetting agent added, applied at various dosages to the surface of the covering soil. • After the treatment, the pots are placed in a greenhouse and kept under good growth conditions for the test plants. The visual assessment of the damage to the test plants is carried out after a trial period of about 3 weeks by comparison with untreated controls (herbicidal activity in percent: 100% activity=the plants have died, 0% activity=like control plants). • In addition to the compounds mentioned above, the following compounds show an activity of 90-100% against Alopecurus myosuroides, Digitaria sanguinalis, Echinocloa crus-galli, Lolium multiflorum, Setaria viridis and Sorghum halapense when applied by the pre-emergence method at 320 g/ha of a.i.: I-a-2, I-a-10, I-a-11, I-a-12.
(§3) 1. Herbicidal Pre-Emergence Action (Pre)
(§4) • Seeds of monocotyledonous and dicotyledonous weed plants and crop plants are placed in wood-fiber pots in sandy loam and covered with soil. […]

Lolium multiflorum [2] = experiment: Herbicidal pre-emergence action, LOLMU
Description: as §1, §2, §3, §4

Setaria viridis [3] = experiment: Herbicidal pre-emergence action, SETVI; conditions: 320 g/ha
Description: as §1, §2, §3
(§5) • Seeds of monocotyledonous and dicotyledonous weed plants and crop plants are placed in wood-fiber pots in sandy loam and covered with soil. The test compounds, formulated in the form of wettable powders (WP) or emulsion concentrates (EC), are then, as an aqueous suspension with a water application rate of 600-800 l/ha (converted), with 0.1-0.2% of wetting agent added, applied at various dosages to the surface of the covering soil. • After the treatment, the pots are placed in a greenhouse and kept under good growth conditions for the test plants. […] Herbicidal Post-Emergence Action (Post) • Seeds of monocotyledonous and dicotyledonous weed and crop plants are placed in sandy loam in wood-fiber pots, covered with soil and cultivated in a greenhouse under good growth conditions. 2-3 weeks (stages 10-13 according to the BBCH scale) after sowing, the test plants are treated at a height of 5-10 cm. The test compounds, formulated as wettable powders (WP) or emulsion concentrates (EC), are then, with a water application rate of 600-800 l/ha (converted), with 0.1-0.2% of wetting agent added, sprayed at various dosages onto the green parts of the plants.
(§6) AVEFA: Avena fatua LOLMU: Lolium multiflorum SETVI: Setaria viridis CHEAL: Chenopodium album VIOTR: Viola tricolor VERPE: Veronica persica ORYSA: Oryza sativa TRZAS: Triticum aestivum ZEAMX: Zea mays ALOMY: Alopecurus myosuroides DIGSA: Digitaria sanguinalis ECHCG: Echinocloa crus-galli SORHA: Sorghum halepense AVESA: Avena sativa AMARE: Amaranthus retroflexus SINAL: Sinapis alba STEME: Stellaria media

Chenopodium album = experiment: Herbicidal pre-emergence action, CHEAL
Description: as §3
as §5, with “the plants. […]” for “the plants.”

Viola tricolor = experiment: Herbicidal pre-emergence action, VIOTR
Description: as §3
as §5, with “the plants. […]” for “the plants.”

Veronica persica [4] = experiment: Herbicidal pre-emergence action, VERPE
Description: as §3
as §5, with “the plants. […]” for “the plants.”

Alopecurus myosuroides = experiment: Herbicidal post-emergence action, ALOMY; conditions: 80 g/ha
Description: (§7) 2. Herbicidal Post-Emergence Action
(§8) • Seeds of monocotyledonous and dicotyledonous weed and crop plants are placed in sandy loam in wood-fiber pots, covered with soil and cultivated in a greenhouse under good growth conditions. 2 to 3 weeks after sowing, the test plants are treated at the one-leaf stage. The test compounds, formulated as wettable powders (WP), are then, with a water application rate of 600 l/ha (converted), with 0.2% of wetting agent added, sprayed at various dosages onto the green parts of the plants. After the test plants have been kept in the greenhouse under optimum growth conditions for about 3 weeks, the activity of the preparations is rated visually in comparison to untreated controls (herbicidal activity in percent: 100% activity=the plants have died, 0% activity=like control plants). • In addition to the compounds mentioned above, the following compounds show an activity of 90-100% against Alopecurus myosuroides, Avena fatua, Digitaria sanguinalis, Echinocloa crus-galli, Lolium multiflorum, Setaria viridis and Sorghum halapense when applied by the post-emergence method at 320 g/ha: I-a-2, I-a-4, I-a-5, I-a-7, I-a-9, I-a-10, I-a-11, I-a-12, I-a-13, I-a-15. • In addition to the compounds mentioned above, the following compounds show an activity of 90-100% against Alopecurus myosuroides, Avena fatua, Echinocloa crus-galli, Lolium multiflorum and Setaria viridis when applied by the post-emergence method at 80 g/ha: I-a-1, I-b-2.
as §5, §6

Avena fatua [5] = experiment: Herbicidal post-emergence action, AVEFA; conditions: 80 g/ha
Description: as §7, §8, §5, §6

Digitaria sanguinalis = experiment: Herbicidal post-emergence action, DIGSA; conditions: 80 g/ha
Description: as §7, §8, §5, §6

Echinocloa crus-galli = experiment: Herbicidal post-emergence action, ECHCG; conditions: 80 g/ha
Description: as §7, §8, §5, §6

Lolium multiflorum [6] = experiment: Herbicidal post-emergence action, LOLMU
Description: as §7, §8, §5, §6

Setaria viridis [7] = experiment: Herbicidal post-emergence action, SETVI
Description: as §7, §8, §5, §6

Sorghum halepense = experiment: Herbicidal post-emergence action, SORHA
Description: as §7, §8, §5, §6

Veronica persica [8] = experiment: Herbicidal post-emergence action, VERPE
Description: as §5, with “the plants. […]” for “the plants.”

Oryza sativa = experiment: Herbicidal post-emergence action, ORYSA; conditions: 80 g/ha
Description: as §5, §6

Triticum aestivum = experiment: Herbicidal post-emergence action, TRZAS; conditions: 80 g/ha
Description: as §5, §6

Zea mays = experiment: Herbicidal post-emergence action, ZEAMX; conditions: 80 g/ha
Description: as §5, §6

Avena sativa = experiment: Herbicidal post-emergence action, AVESA
Description: as §5, with “the plants. […]” for “the plants.”

Amaranthus retroflexus = experiment: Herbicidal post-emergence action, AMARE
Description: as §5, with “the plants. […]” for “the plants.”

Sinapis alba = experiment: Herbicidal post-emergence action, SINAL
Description: as §5, with “the plants. […]” for “the plants.”

Stellaria media = experiment: Herbicidal post-emergence action, STEME
Description: as §5, with “the plants. […]” for “the plants.”

Myzus persicae = experiment: Myzus test (MYZUPE spray treatment); conditions: application rate 500 g/ha, after 5 days, Chinese cabbage leaf discs
Description: Myzus Test (MYZUPE Spray Treatment) [table] To produce a suitable preparation of active compound, 1 part by weight of active compound is mixed with the stated amount of solvent and emulsifier, and the concentrate is diluted with emulsifier-containing water to the desired concentration. Discs of Chinese cabbage (Brassica pekinensis) infected by all stages of the green peach aphid (Myzus persicae) are sprayed with an active compound preparation of the desired concentration. After 5 days, the effect in % is determined 100% means that all of the aphids have been killed; 0% means that none of the aphids have been killed. Myzus Test (MYZUPE Spray Treatment) To produce a suitable preparation of active compound, 1 part by weight of active compound is mixed with the stated amount of solvent and emulsifier, and the concentrate is diluted with emulsifier-containing water to the desired concentration. Discs of Chinese cabbage (Brassica pekinensis) infected by all stages of the green peach aphid (Myzus persicae) are sprayed with an active compound preparation of the desired concentration. After the desired period of time, the activity in % is determined. 100% means that all of the aphids have been killed; 0% means that none of the aphids have been killed.

CCc1cc(Cl)cc(Cl)c1C1=C(OC(=O)C(C)(C)C)NC2(CCC(C)CC2)C1=O (centres unmarked) [I-a-4]
% Activity AVEFA (Avena fatua [1]; 320 g/ha): 50%
% Activity LOLMU (Lolium multiflorum [2]; 320 g/ha): 100%
% Activity SETVI (Setaria viridis [3]): 90%
% Activity CHEAL (Chenopodium album; 320 g/ha): 50%
% Activity VIOTR (Viola tricolor; 320 g/ha): 70%
% Activity VERPE (Veronica persica [4]; 320 g/ha): 40%
% Activity ALOMY (Alopecurus myosuroides): 100%
% Activity AVEFA (Avena fatua [5]): 100%
% Activity DIGSA (Digitaria sanguinalis): 100%
% Activity ECHCG (Echinocloa crus-galli): 100%
% Activity LOLMU (Lolium multiflorum [6]; 80 g/ha): 100%
% Activity SETVI (Setaria viridis [7]; 80 g/ha): 100%
% Activity SORHA (Sorghum halepense; 80 g/ha): 100%
% Activity VERPE (Veronica persica [8]; 80 g/ha): 60%
% Activity ORYSA (Oryza sativa): 100%
% Activity TRZAS (Triticum aestivum): 100%
% Activity ZEAMX (Zea mays): 100%

CCc1cc(Cl)cc(Cl)c1C1=C(OC(=O)C(C)(C)C)C2(CCC(C)CC2)NC1=O (centres unmarked) [I-b-12 known from WO 04/065366]
inhibition at 320 g/ha (Avena fatua [1]; Avena fatua, pre-emergence): 0%
inhibition at 320 g/ha (Lolium multiflorum [2]; Lolium multiflorum, pre-emergence): 40%
inhibition at 320 g/ha (Setaria viridis [3]; Setaria viridis, pre-emergence): 40%
inhibition at 320 g/ha (Chenopodium album; Chenopodium album, pre-emergence): 0%
inhibition at 320 g/ha (Viola tricolor; Viola tricolor, pre-emergence): 0%
inhibition at 320 g/ha (Veronica persica [4]; Veronica persica, pre-emergence): 0%

CCc1cc(Cl)cc(OC)c1C1=C(OC(=O)C(C)(C)C)C2(CCC(OC)CC2)NC1=O (centres unmarked)
inhibition at 320 g/ha (Lolium multiflorum [6]; Lolium multiflorum, post-emergence, 320 g/ha): 0%
inhibition at 320 g/ha (Setaria viridis [7]; Setaria viridis, post-emergence, 320 g/ha): 0%
inhibition at 320 g/ha (Avena sativa; Avena sativa, post-emergence): 0%
inhibition at 320 g/ha (Amaranthus retroflexus; Amaranthus retroflexus, post-emergence): 0%
inhibition at 320 g/ha (Sinapis alba; Sinapis alba, post-emergence): 0%
inhibition at 320 g/ha (Stellaria media; Stellaria media, post-emergence): 0%

CCc1cccc(Cl)c1C1=C(OC(=O)C(C)(C)C)C2(CCC(C)CC2)NC1=O (centres unmarked) [I-b-12 known from WO 04/065366]
inhibition at 80 g/ha (Alopecurus myosuroides; Alopecurus myosuroides, post-emergence): 0%
inhibition at 80 g/ha (Avena fatua [5]; Avena fatua, post-emergence): 0%
inhibition at 80 g/ha (Digitaria sanguinalis; Digitaria sanguinalis, post-emergence): 30%
inhibition at 80 g/ha (Echinocloa crus-galli; Echinochloa crus-galli, post-emergence): 40%
inhibition at 80 g/ha (Lolium multiflorum [6]; Lolium multiflorum, post-emergence, 80 g/ha): 0%
inhibition at 80 g/ha (Setaria viridis [7]; Setaria viridis, post-emergence, 80 g/ha): 30%
inhibition at 80 g/ha (Sorghum halepense; Sorghum halepense, post-emergence): 0%
inhibition at 80 g/ha (Veronica persica [8]; Veronica persica, post-emergence): 0%
inhibition at 80 g/ha (Oryza sativa; Oryza sativa, post-emergence): 0%
inhibition at 80 g/ha (Triticum aestivum; Triticum aestivum, post-emergence): 0%
inhibition at 80 g/ha (Zea mays; Zea mays, post-emergence): 0%

CCc1cc(Cl)cc(OC)c1C1=C(OC(=O)C(C)(C)C)NC2(CCC(OC)CC2)C1=O (centres unmarked) [I-a-9]
effect in % (aphids killed) (Myzus persicae): 80%
% Activity LOLMU (Lolium multiflorum [6]; 320 g/ha): 100%
% Activity SETVI (Setaria viridis [7]; 320 g/ha): 100%
% Activity AVESA (Avena sativa; 320 g/ha): 90%
% Activity AMARE (Amaranthus retroflexus; 320 g/ha): 40%
% Activity SINAL (Sinapis alba; 320 g/ha): 60%
% Activity STEME (Stellaria media; 320 g/ha): 40%
